Laboratory results reported in patent US20240148821A1, “PHARMACEUTICAL USE OF CYCLIC PEPTIDE COMPOUND” (CHUGAI SEIYAKU KABUSHIKI KAISHA, priority 2021, published 2024).
Numbered stars: 1 amine (or outer) side, 2 acyl side, 3 side chain; on linkers, the order of the positions; unused ones are H or OH. Bridge positions count the residues as written; N and C are the ends. Square brackets hold non-standard residues; d marks the D form. Peptide text beside a SMILES is read from it. * marks the point of attachment. hPhe(3-Cl-4-CF3) = N[C@@H](CCc1ccc(C(F)(F)F)c(Cl)c1)C(=O)O; NMePhe(4-CF3) = CN[C@@H](Cc1ccc(C(F)(F)F)cc1)C(=O)O; hPhe(4-CF3) = N[C@@H](CCc1ccc(C(F)(F)F)cc1)C(=O)O; NMePhe(3,4-F2) = CN[C@@H](Cc1ccc(F)c(F)c1)C(=O)O; NMePhe(4-Cl) = CN[C@@H](Cc1ccc(Cl)cc1)C(=O)O; NMePhe(4-Me) = CN[C@@H](Cc1ccc(C)cc1)C(=O)O; NMePhe(2-Cl) = CN[C@@H](Cc1ccccc1Cl)C(=O)O; NMeGly(cPent) = CN[C@H](C(=O)O)C1CCCC1; dβ3hPip = O=C(C[C@H]1CCCCN1[*:1])[*:2]; NMeGly(cBu) = CN[C@H](C(=O)O)C1CCC1; NMeCha = CN[C@@H](CC1CCCCC1)C(=O)O; NMeGly(cPr) = CN[C@H](C(=O)O)C1CC1; Ala(cPr) = N[C@@H](CC1CC1)C(=O)O; NMeAhp(2) = CCCCC[C@H](NC)C(=O)O; NMeF = CN[C@@H](Cc1ccccc1)C(=O)O; NMeI = CC[C@H](C)[C@H](NC)C(=O)O; d(β3hL) = CC(C)C[C@@H](N)CC(=O)O; NMeD = CN[C@@H](CC(=O)O)C(=O)O; NMeL = CN[C@@H](CC(C)C)C(=O)O; NMeV = CN[C@H](C(=O)O)C(C)C; d(β3hA) = C[C@@H](N)CC(=O)O; Azetidin(1-yl) = C1CN(*)C1; NMeA = CN[C@@H](C)C(=O)O; Piperidide = C1CCN(*)CC1; dNMeA = CN[C@H](C)C(=O)O; Ac5c = NC1(C(=O)O)CCCC1; Aze = O=C(O)[C@@H]1CCN1; Aib = CC(C)(N)C(=O)O; Sar = CNCC(=O)O

target: protein-protein interaction between Kras and SOS1 (biotin-tagged human Kras loaded with GDP, His-tagged human SOS1) (Homo sapiens (Human), UniProt P01116, G12D); test: Protein-protein interaction inhibition between Kras and SOS1 (KrasG12D-SOS PPI) using AlphaScreen; type: biochemical; settings: AlphaScreen; biotin-tagged human Kras loaded with GDP, His-tagged human SOS1; read-out: KRAS G12D-SOS PPI IC50;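 note: kras produced in E. coli, Ni-coupled donor beads and streptavidin acceptor beads, excitation 680 nm with emission detected at 520–620 nm via singlet oxygen transfer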

Row | Structure (SMILES) | IC50 [nM]
1 | CCCCC[C@H]1C(=O)N[C@@H]([C@@H](C)CC)C(=O)N[C@@H](C)C(=O)N2CC[C@H]2C(=O)N(C)[C@@H](CC2CCCCC2)C(=O)N(C)CC(=O)N[C@@H](CCc2ccc(C(F)(F)F)c(Cl)c2)C(=O)N2CCC[C@H]2C(=O)NC2(CCCC2)C(=O)N(C)[C@@H](C2CCCC2)C(=O)N(C)[C@H](C(=O)N2CCC2)CC(=O)N1C [Compound 155] ([NMeAhp(2)]IA[Aze][NMeCha][Sar][hPhe(3-Cl-4-CF3)]P[Ac5c][NMeGly(cPent)][NMeD]-{Azetidin(1-yl)}; lactam N-11) | 1.6
2 | CC[C@H](C)[C@@H]1NC(=O)[C@H](C)N(C)C(=O)C[C@H]2CCCCN2C(=O)[C@H](C(C)C)N(C)C(=O)[C@H](Cc2ccccc2)N(C)C(=O)[C@H](CC(C)C)N(C)C(=O)[C@H](CCc2ccc(C(F)(F)F)cc2)NC(=O)CN(C)C(=O)[C@H](Cc2ccc(Cl)cc2)N(C)C(=O)CN(C)C(=O)CN(C)C1=O [Compound 512] (cyclo(I[Sar][Sar][NMePhe(4-Cl)][Sar][hPhe(4-CF3)][NMeL][NMeF][NMeV][dβ3hPip][NMeA])) | 150
3 | CC[C@H](C)[C@@H]1NC(=O)[C@H](C)N(C)C(=O)C[C@@H](C)NC(=O)[C@H](C2CCCC2)N(C)C(=O)C2(CCCC2)NC(=O)[C@@H]2CCCN2C(=O)[C@H](CCc2ccc(C(F)(F)F)c(Cl)c2)NC(=O)[C@@H](C)N(C)C(=O)[C@H](Cc2ccc(F)c(F)c2)N(C)C(=O)[C@@H]2CCN2C(=O)[C@H](C)N(C)C1=O [Compound 310] (cyclo([Ac5c][NMeGly(cPent)][d(β3hA)][NMeA]I[NMeA][Aze][NMePhe(3,4-F2)][dNMeA][hPhe(3-Cl-4-CF3)]P)) | 96
4 | CC[C@H](C)[C@@H]1NC(=O)[C@H](CC(C)C)N(C)C(=O)C[C@@H](C(=O)N2CCCCC2)N(C)C(=O)[C@H](C2CCCC2)N(C)C(=O)C2(CCCC2)NC(=O)[C@@H]2CCCN2C(=O)[C@H](CCc2ccc(C(F)(F)F)c(Cl)c2)NC(=O)CN(C)C(=O)[C@H](C2CCC2)N(C)C(=O)[C@@H]2CCN2C(=O)[C@H](C)N(C)C1=O [Compound 127] ([NMeL]I[NMeA][Aze][NMeGly(cBu)][Sar][hPhe(3-Cl-4-CF3)]P[Ac5c][NMeGly(cPent)][NMeD]-Piperidide; lactam N-11) | 0.43
5 | CC[C@H](C)[C@@H]1NC(=O)[C@H](C2CC2)N(C)C(=O)C[C@@H](C(=O)N2CCCCC2)N(C)C(=O)[C@H](C(C)C)N(C)C(=O)C2(CCCC2)NC(=O)[C@@H]2CCCN2C(=O)[C@H](CCc2ccc(C(F)(F)F)c(Cl)c2)NC(=O)CN(C)C(=O)[C@H](CC2CCCCC2)N(C)C(=O)[C@@H]2CCN2C(=O)[C@H](C)N(C)C1=O [Compound 100] ([NMeGly(cPr)]I[NMeA][Aze][NMeCha][Sar][hPhe(3-Cl-4-CF3)]P[Ac5c][NMeV][NMeD]-Piperidide; lactam N-11) | 7.4
6 | CC[C@H](C)[C@@H]1NC(=O)[C@H](C)N(C)C(=O)C[C@@H](C(=O)N2CCCCC2)N(C)C(=O)[C@H](C(C)C)N(C)C(=O)C2(CCCC2)NC(=O)[C@H](Cc2ccccc2Cl)N(C)C(=O)[C@H](CCc2ccc(C(F)(F)F)c(Cl)c2)NC(=O)CN(C)C(=O)[C@H](Cc2ccc(C)cc2)N(C)C(=O)CN(C)C(=O)CN(C)C1=O [Compound 2007] ([NMeA]I[Sar][Sar][NMePhe(4-Me)][Sar][hPhe(3-Cl-4-CF3)][NMePhe(2-Cl)][Ac5c][NMeV][NMeD]-Piperidide; lactam N-11) | 230
7 | CC(C)C[C@H]1C(=O)N[C@@H](CC2CC2)C(=O)N(C)[C@@H](C)C(=O)N2CC[C@H]2C(=O)N(C)[C@@H](CC2CCCCC2)C(=O)N(C)CC(=O)N[C@@H](CCc2ccc(C(F)(F)F)c(Cl)c2)C(=O)N2CCC[C@H]2C(=O)NC2(CCCC2)C(=O)N(C)[C@@H](C(C)C)C(=O)N[C@H](C)CC(=O)N1C [Compound 474] (cyclo([Ac5c][NMeV][d(β3hA)][NMeL][Ala(cPr)][NMeA][Aze][NMeCha][Sar][hPhe(3-Cl-4-CF3)]P)) | 280
8 | CC[C@H](C)[C@@H]1NC(=O)[C@H](CC(C)C)N(C)C(=O)C[C@@H](C)NC(=O)[C@H](CC(C)C)N(C)C(=O)C(C)(C)NC(=O)[C@H](CC(C)C)N(C)C(=O)[C@H](CCc2ccc(C(F)(F)F)cc2)NC(=O)CN(C)C(=O)[C@H](Cc2ccc(Cl)cc2)N(C)C(=O)CN(C)C(=O)CN(C)C1=O [Compound 261] (cyclo([Aib][NMeL][d(β3hA)][NMeL]I[Sar][Sar][NMePhe(4-Cl)][Sar][hPhe(4-CF3)][NMeL])) | 52
9 | CC[C@H](C)[C@@H]1NC(=O)[C@H](CC(C)C)N(C)C(=O)C[C@@H](CC(C)C)NC(=O)[C@H]([C@@H](C)CC)N(C)C(=O)C2(CCCC2)NC(=O)[C@@H]2CCCN2C(=O)[C@H](CCc2ccc(C(F)(F)F)c(Cl)c2)NC(=O)CN(C)C(=O)[C@H](Cc2ccc(C(F)(F)F)cc2)N(C)C(=O)[C@@H]2CCN2C(=O)[C@H](C)N(C)C1=O [Compound 1899] (cyclo([Ac5c][NMeI][d(β3hL)][NMeL]I[NMeA][Aze][NMePhe(4-CF3)][Sar][hPhe(3-Cl-4-CF3)]P)) | 220
